The test system of one assay is Mino cells. Description: Antiproliferative effect, MTS cell viability assay, Mino cells. Type of assay: cell-based. Conditions: Homo sapiens, Mino mantle cell lymphoma cells, read-out: IC50 (anti-proliferation) Mino cells. The essentials: (§1)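 Readout was MTS-derived formazan absorbance (490 nm) reflecting metabolically active cells. Treatment lasted 72 h over a 0–10 μM range (0.001, 0.01, 0.1, 1, 10 μM) in JeKo-1 and Mino B-cell malignancy cells.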
On the technique in general: Formazan colour is commonly taken as a measure of viable cells.

The target in a further assay is BTK (Homo sapiens, UniProt Q06187). In words: Degradation of BTK protein in Namalwa cells (Western blot; DC50, Dmax). To be noted: for DC50: read-out: DC50 (BTK degradation), concentration giving 50% reduction of BTK expression level, cell line not given; for Dmax: read-out: Dmax (BTK degradation).
Chain of BTK (Q06187 whole entry): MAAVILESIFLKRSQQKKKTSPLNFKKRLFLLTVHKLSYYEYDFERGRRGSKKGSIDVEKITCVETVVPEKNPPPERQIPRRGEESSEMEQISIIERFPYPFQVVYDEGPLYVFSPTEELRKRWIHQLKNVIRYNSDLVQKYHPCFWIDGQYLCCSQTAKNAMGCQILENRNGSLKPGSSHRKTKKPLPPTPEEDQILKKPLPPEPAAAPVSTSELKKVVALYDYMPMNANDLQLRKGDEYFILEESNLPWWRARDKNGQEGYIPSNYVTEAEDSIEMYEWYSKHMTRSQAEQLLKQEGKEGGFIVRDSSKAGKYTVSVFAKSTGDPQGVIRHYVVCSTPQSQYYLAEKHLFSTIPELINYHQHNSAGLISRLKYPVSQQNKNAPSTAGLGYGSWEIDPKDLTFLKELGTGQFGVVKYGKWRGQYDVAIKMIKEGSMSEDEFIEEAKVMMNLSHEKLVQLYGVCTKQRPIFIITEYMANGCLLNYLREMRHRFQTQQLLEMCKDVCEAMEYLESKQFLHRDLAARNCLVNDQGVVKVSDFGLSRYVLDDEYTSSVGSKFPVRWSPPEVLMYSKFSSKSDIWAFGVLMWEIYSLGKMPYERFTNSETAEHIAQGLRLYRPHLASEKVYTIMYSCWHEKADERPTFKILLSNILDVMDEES
A further assay deals with JeKo-1 cells. In words: Antiproliferative effect, MTS cell viability assay, JeKo-1 cells. Type of assay: cell-based. Conditions: Homo sapiens; JeKo-1 mantle cell lymphoma cells; read-out: IC50 (anti-proliferation) JeKO-1 cells. Summed up:
as §1

pIC50: −log10 of the molar value. Read-outs that look alike come from different tables or passages of the source.

`Nc1ncnc2c1c(-c1ccc(Oc3ccccc3)cc1)nn2C1CCN(C[C@H]2CCN(C[C@@H]3CCN(c4ccc5c(c4)C(=O)N(C4CCC(=O)NC4=O)C5=O)C3)C2)CC1` (stereo partly drawn) [Compound 447b, 5-((S)-3-(((R)-3-((4-(4-amino-3-(4-phenoxyphenyl)-1H-pyrazolo[3,4-d]pyrimidin-1-yl)piperidin-1-yl)methyl)pyrrolidin-1-yl)methyl)pyrrolidin-1-yl)-2-(2,6-dioxopiperidin-3-yl)isoindoline-1,3-dione]: the pIC50 with Mino cells (MINO) is 5.00 to 6.00. In addition, on BTK, the DC50 was less than 10 nM and the Dmax is greater than 90%. Further, the pIC50 in the assay with JeKo-1 cells was 5.00 to 6.00.
`Nc1ncnc2c1c(-c1ccc(Oc3ccccc3)cc1)nn2C1CCN(C[C@@H]2CCN(C[C@@H]3CCN(c4ccc5c(c4)C(=O)N(C4CCC(=O)NC4=O)C5=O)C3)C2)CC1` (stereo partly drawn) [Compound 447c, 5-((S)-3-(((S)-3-((4-(4-amino-3-(4-phenoxyphenyl)-1H-pyrazolo[3,4-d]pyrimidin-1-yl)piperidin-1-yl)methyl)pyrrolidin-1-yl)methyl)pyrrolidin-1-yl)-2-(2,6-dioxopiperidin-3-yl)isoindoline-1,3-dione]: the pIC50 in the assay on Mino cells (MINO) and with JeKo-1 cells was 5.00 to 6.00 throughout. In addition, the DC50 at BTK is less than 10 nM. Further, the Dmax at BTK is greater than 90%.
In the case of `Nc1ncnc2c1c(-c1ccc(Oc3ccccc3)cc1)nn2C1CCN(C[C@@H]2CCN(C[C@H]3CCN(c4ccc5c(c4)C(=O)N(C4CCC(=O)NC4=O)C5=O)C3)C2)CC1` (stereo partly drawn) [Compound 447d, 5-((R)-3-(((S)-3-((4-(4-amino-3-(4-phenoxyphenyl)-1H-pyrazolo[3,4-d]pyrimidin-1-yl)piperidin-1-yl)methyl)pyrrolidin-1-yl)methyl)pyrrolidin-1-yl)-2-(2,6-dioxopiperidin-3-yl)isoindoline-1,3-dione], the pIC50 in the assay on Mino cells (MINO) was 5.00 to 6.00. Besides, at BTK, the 50% degradation concentration (DC50) was 10 to 50 nM and the Dmax was greater than 90%. Moreover, in the assay on JeKo-1 cells, the pIC50 was 5.00 to 6.00.
Regarding `Nc1ncnc2c1c(-c1ccc(Oc3ccccc3)cc1)nn2C1CCN(CC2CCN(CC3CCN(c4ccc5c(c4)CN(C4CCC(=O)NC4=O)C5=O)C3)C2)CC1` (stereo not shown) [Compound 448, 3-(5-(3-((3-((4-(4-amino-3-(4-phenoxyphenyl)-1H-pyrazolo[3,4-d]pyrimidin-1-yl)piperidin-1-yl)methyl)pyrrolidin-1-yl)methyl)pyrrolidin-1-yl)-1-oxoisoindolin-2-yl)piperidine-2,6-dione], the pIC50 with Mino cells (MINO) is 5.00 to 6.00. For the same compound, on BTK, the DC50 lay within 10 to 50 nM and the Dmax is greater than 90%. The pIC50 with JeKo-1 cells is 5.00 to 6.00.
On to `Nc1ncnc2c1c(-c1ccc(Oc3ccccc3)cc1)nn2C1CCN([C@H]2CCN(CC3CCN(c4ccc5c(c4)C(=O)N(C4CCC(=O)NC4=O)C5=O)CC3)C2)CC1` (stereo partly drawn) [Compound 449a, 5-(4-(((S)-3-(4-(4-amino-3-(4-phenoxyphenyl)-1H-pyrazolo[3,4-d]pyrimidin-1-yl)piperidin-1-yl)pyrrolidin-1-yl)methyl)piperidin-1-yl)-2-(2,6-dioxopiperidin-3-yl)isoindoline-1,3-dione], for which the pIC50 in the assay with Mino cells (MINO) and in the assay on JeKo-1 cells was greater than 6.00 each time. In addition, the 50% degradation concentration (DC50) at BTK was less than 10 nM. Moreover, the Dmax at BTK was greater than 90%.
In the case of `Nc1ncnc2c1c(-c1ccc(Oc3ccccc3)cc1)nn2C1CCN([C@@H]2CCN(CC3CCN(c4ccc5c(c4)C(=O)N(C4CCC(=O)NC4=O)C5=O)CC3)C2)CC1` (stereo partly drawn) [Compound 449b, 5-(4-(((R)-3-(4-(4-amino-3-(4-phenoxyphenyl)-1H-pyrazolo[3,4-d]pyrimidin-1-yl)piperidin-1-yl)pyrrolidin-1-yl)methyl)piperidin-1-yl)-2-(2,6-dioxopiperidin-3-yl)isoindoline-1,3-dione], the pIC50 in the assay on Mino cells (MINO) and in the assay on JeKo-1 cells was greater than 6.00 each time. On BTK, the DC50 was less than 10 nM. Besides, the Dmax on BTK is greater than 90%.
Take `Nc1ncnc2c1c(-c1ccc(Oc3ccccc3)cc1)nn2C1CCN(C2CCN(CC3CCN(c4ccc5c(c4)CN(C4CCC(=O)NC4=O)C5=O)CC3)C2)CC1` (stereo not shown) [Compound 450, 3-(5-(4-((3-(4-(4-amino-3-(4-phenoxyphenyl)-1H-pyrazolo[3,4-d]pyrimidin-1-yl)piperidin-1-yl)pyrrolidin-1-yl)methyl)piperidin-1-yl)-1-oxoisoindolin-2-yl)piperidine-2,6-dione]: in the assay with Mino cells (MINO), the pIC50 was 5.00 to 6.00. In addition, on BTK, the DC50 lay in the range of 10 to 50 nM and the Dmax was greater than 75%. For the same compound, the pIC50 in the assay on JeKo-1 cells is 5.00 to 6.00.
In the case of `Nc1ncnc2c1c(-c1ccc(Oc3ccccc3)cc1)nn2C1CCN(C2CCN(CC3CCN(c4ccc5c(c4)C(=O)N(C4CCC(=O)NC4=O)C5=O)C3)C2)CC1` (stereo not shown) [Compound 451, 5-(3-((3-(4-(4-amino-3-(4-phenoxyphenyl)-1H-pyrazolo[3,4-d]pyrimidin-1-yl)piperidin-1-yl)pyrrolidin-1-yl)methyl)pyrrolidin-1-yl)-2-(2,6-dioxopiperidin-3-yl)isoindoline-1,3-dione], the pIC50 in the assay on Mino cells (MINO) was greater than 6.00; in the assay with JeKo-1 cells it was 5.00 to 6.00. Further, the “degradation of BTK protein” value on BTK (Namalwa B lymphocyte cells, various concentrations, 24 hours, Western blot) is reported as “dose-dependent degradation”. In addition, the DC50 on BTK is less than 10 nM. Further, the Dmax on BTK was greater than 90%.
On to `Nc1ncnc2c1c(-c1ccc(Oc3ccccc3)cc1)nn2C1CCN(C2CCN(CC3CCN(c4ccc5c(c4)CN(C4CCC(=O)NC4=O)C5=O)C3)C2)CC1` (stereo not shown) [Compound 452, 3-(5-(3-((3-(4-(4-amino-3-(4-phenoxyphenyl)-1H-pyrazolo[3,4-d]pyrimidin-1-yl)piperidin-1-yl)pyrrolidin-1-yl)methyl)pyrrolidin-1-yl)-1-oxoisoindolin-2-yl)piperidine-2,6-dione], for which the pIC50 with Mino cells (MINO) was greater than 6.00; with JeKo-1 cells, 5.00 to 6.00. The DC50 on BTK lay in the range of 10 to 50 nM. In addition, on BTK, the Dmax is greater than 75%.
Regarding `Nc1ncnc2c1c(-c1ccc(Oc3ccccc3)cc1)nn2C1CCN(CCN2CCC(CN3CCN(c4ccc5c(c4)C(=O)N(C4CCC(=O)NC4=O)C5=O)CC3)CC2)CC1` (stereo not shown) [Compound 453, 5-(4-((1-(2-(4-(4-amino-3-(4-phenoxyphenyl)-1H-pyrazolo(3,4-d)pyrimidin-1-yl)piperidin-1-yl)ethyl)piperidin-4-yl)methyl)piperazin-1-yl)-2-(2,6-dioxopiperidin-3-yl)isoindoline-1,3-dione], the pIC50 in the assay on Mino cells and in the assay with JeKo-1 cells was 5.00 to 6.00 each time. Further, the DC50 at BTK lay in the range of 10 to 50 nM. The Dmax on BTK is greater than 90%.
On to `Nc1ncnc2c1c(-c1ccc(Oc3ccccc3)cc1)nn2C1CCN(CCN2CCC(CN3CCN(c4ccc5c(c4)CN(C4CCC(=O)NC4=O)C5=O)CC3)CC2)CC1` (stereo not shown) [Compound 454, 3-(5-(4-((1-(2-(4-(4-amino-3-(4-phenoxyphenyl)-1H-pyrazolo[3,4-d]pyrimidin-1-yl)piperidin-1-yl)ethyl)piperidin-4-yl)methyl)piperazin-1-yl)-1-oxoisoindolin-2-yl)piperidine-2,6-dione], for which the pIC50 with Mino cells (MINO) is less than 5.00. On BTK, the DC50 is greater than 50 nM and the Dmax was greater than 50%. The pIC50 with JeKo-1 cells was 5.00 to 6.00.
As to `Nc1ncnc2c1c(-c1ccc(Oc3ccccc3)cc1)nn2C1CCN(CCN2CCC(CN3CCN(c4ccc5c(c4)C(=O)N(C4CCC(=O)NC4=O)C5=O)CC3)C2)CC1` (stereo not shown) [Compound 455, 5-(4-((1-(2-(4-(4-amino-3-(4-phenoxyphenyl)-1H-pyrazolo(3,4-d)pyrimidin-1-yl)piperidin-1-yl)ethyl)pyrrolidin-3-yl)methyl)piperazin-1-yl)-2-(2,6-dioxopiperidin-3-yl)isoindoline-1,3-dione], the pIC50 with Mino cells is greater than 6.00. At BTK, the DC50 is less than 10 nM and the Dmax is greater than 90%. In the assay on JeKo-1 cells, the pIC50 was greater than 6.00.
Take `Nc1ncnc2c1c(-c1ccc(Oc3ccccc3)cc1)nn2C1CCN(CCN2CCC(CN3CCN(c4ccc5c(c4)CN(C4CCC(=O)NC4=O)C5=O)CC3)C2)CC1` (stereo not shown) [Compound 456, 3-(5-(4-((1-(2-(4-(4-amino-3-(4-phenoxyphenyl)-1H-pyrazolo[3,4-d]pyrimidin-1-yl)piperidin-1-yl)ethyl)pyrrolidin-3-yl)methyl)piperazin-1-yl)-1-oxoisoindolin-2-yl)piperidine-2,6-dione]: the pIC50 in the assay with Mino cells (MINO) and with JeKo-1 cells was 5.00 to 6.00 in each case. Besides, the DC50 on BTK was 10 to 50 nM. Further, on BTK, the Dmax is greater than 75%.
With `Nc1ncnc2c1c(-c1ccc(Oc3ccccc3)cc1)nn2C1CCN(CCN2CCC(N3CCN(c4ccc5c(c4)C(=O)N(C4CCC(=O)NC4=O)C5=O)CC3)CC2)CC1` (stereo not shown) [Compound 457, 5-(4-(1-(2-(4-(4-amino-3-(4-phenoxyphenyl)-1H-pyrazolo(3,4-d)pyrimidin-1-vi)piperidin-1-yl)ethyl)piperidin-4-yl)piperazin-1-yl)-2-(2,6-dioxopiperidin-3-yl)isoindoline-1,3-dione], the pIC50 in the assay on Mino cells is greater than 6.00. Also, at BTK, the DC50 was less than 10 nM and the Dmax was greater than 90%. Moreover, the pIC50 with JeKo-1 cells is greater than 6.00.
As for `Nc1ncnc2c1c(-c1ccc(Oc3ccccc3)cc1)nn2C1CCN(CCN2CCC(N3CCN(c4ccc5c(c4)CN(C4CCC(=O)NC4=O)C5=O)CC3)CC2)CC1` (stereo not shown) [Compound 458, 3-(5-(4-(1-(2-(4-(4-amino-3-(4-phenoxyphenyl)-1H-pyrazolo[3,4-d]pyrimidin-1-yl)piperidin-1-yl)ethyl)piperidin-4-yl)piperazin-1-yl)-1-oxoisoindolin-2-yl)piperidine-2,6-dione], the pIC50 in the assay with Mino cells (MINO) was 5.00 to 6.00. For the same compound, at BTK, the DC50 was greater than 50 nM and the Dmax is greater than 50%. The pIC50 with JeKo-1 cells was 5.00 to 6.00.

As a reminder, the DC50 is the midpoint of the concentration-degradation curve. A word on the Dmax: it is the largest share of the target that was removed.
